A word on the remaining activity: it is the activity still measured, relative to the control.

In this assay the target is T1, colon K^+-ATPase (Oryctolagus cuniculus, UniProt Q9TV52).
T1 construct: Apical brush-border membranes were prepared from rabbit descending colon epithelium; from tissue; host or cells: rabbit descending colon epithelium, apical brush-border membrane fraction (Percoll gradient)
The assay is described as follows: Inhibition of colon K+-ATPase by acid decomposed omeprazole (Pi liberated from ATP, apical brush-border membranes of descending colon). The arrangement: activity of the colonic K^+-ATPase enzyme: dose or concentration left out as unconfirmed. The class given is biochemical, rabbit. As to the method: In order to evaluate the inhibitory effect on colonic K^+-ATPase of the substituted benzimidazoles with the general formula I, we have tested one compound, namely omeprazole on an enzyme preparation from the descending colon of the rabbit (cf. below).
In the case of omeprazole the most efficient way to form the active degradation products is to decompose it in acid solution. Thus, omeprazole was decomposed in acid before it was added to the enzyme.
In order to isolate and characterize the ouabain insensitive potassium- stimulated ATPase from rabbit descending colon the following preparation was made.
Apical brush-border membranes were prepared from rabbit descending colon epithelium, by the method of Gustin M.C., and Goodman D.B.P., J. Biol. Chem. 256, 10651-10656 (1981), with some modifications.
Two albino male rabbits, weighing 2-3 kg, were killed by injection of mebumal into the ear vein. A section of colon, 30-35 cm in length, measured from rectum, was removed, rinsed free of its content with icecold 0.15 M NaCl and everted over a glassrod. The tissue was then divided in two pieces. These everted segments were tied at one end, filled with an icecold buffer containing 30 mM NaCl, 5mM Na3EDTA and 8 mM Hepes/Tris pH 7.6, using a 20 ml syringe without a needle, until they became distended, at which point the other end was tied. The intestines were transferred to a 500 ml centrifuge tube containing the same cold pH 7.6 buffer. The tube was placed in an icebox, which was shaken for 2 hours at 260 osc./min. Then the incubation medium was filtered through a nylon net of 200 µm mesh, to remove debris.
Sedimentation of epithelial cells was performed by centrifugation at 500xg for 10 minutes at 4°C, in a Beckman J2-21 centrifuge. The pelleted cells were resuspended in 250 ml of a solution containing 1mM Na3EDTA, adjusted to pH 8.3 with HC1 at 4°C, just before use. The cells were then disrupted, by a 28 second homogenization in a Waring Blendor. The resulting homogenate was centrifuged for 10 minutes at 4°C with a centrifugal force of 750xg in a Beckman J2-21 centrifuge with a JA-17 rotor, in order to sediment brush-borders. Pellets were combined, resuspended in 40 ml of the medium containing 1mM Na3EDTA and recentrifuged as described above. The brush-border pellet (P2) was resuspended in 33.3 ml of the same medium, 2.7 ml density gradient medium (Percoll, Pharmacia) was added by mixing. The Percoll medium was allowed to generate a density gradient during 22 minutes at 40 OOOxg in a Beckman J2-21 centrifuge, in which the membranes sedimented into bands. Nine fractions (Gl-G9) of 4 ml each, were carefully removed from the gradient with a Pasteur-pipette. The fractions were subjected to centrifugation in a Kontron TGA-65 centrifuge with a TST 60 swing-out rotor at 50 000 rpm for 45 minutes, to sediment the Percoll. The material collected on the top of the Percoll pellet was homogenized by a glass-teflon homogenizer with 5-10 up-down strokes at about 1500 rpm.
ATPase activity was determined as the amount of Pi (free phosphate) liberated from ATP by the enzyme per unit of time.
The assay medium contained 2mM ATP, 2mM MgCl2, 18.4 mM Pipes/Tris pH 7.4 and membrane protein in the presence or absence of 10 mM KC1 in a final volume of 1 ml. In some experiments, 10^-5 M of the specific Na^+,K^+-ATPase inhibitor ouabain was present. The enzyme Na^+,K^+-ATPase is responsible for the active transport of Na^+ out from the cell into the plasma as well as for the transport of K^+ into the cell from the plasma. Unless otherwise mentioned, the preparation was preincubated with ouabain on ice for 10 minutes before start of the reaction, which was initiated with ATP, mixed and incubated for suitable time at 37°C. The reaction was stopped by the addition of 1 ml icecold 12 per cent perchloric acid, containing 3.6 per cent ammoniummolybdate. […]

T1 sequence (Q9TV52 whole entry, other chains not shown): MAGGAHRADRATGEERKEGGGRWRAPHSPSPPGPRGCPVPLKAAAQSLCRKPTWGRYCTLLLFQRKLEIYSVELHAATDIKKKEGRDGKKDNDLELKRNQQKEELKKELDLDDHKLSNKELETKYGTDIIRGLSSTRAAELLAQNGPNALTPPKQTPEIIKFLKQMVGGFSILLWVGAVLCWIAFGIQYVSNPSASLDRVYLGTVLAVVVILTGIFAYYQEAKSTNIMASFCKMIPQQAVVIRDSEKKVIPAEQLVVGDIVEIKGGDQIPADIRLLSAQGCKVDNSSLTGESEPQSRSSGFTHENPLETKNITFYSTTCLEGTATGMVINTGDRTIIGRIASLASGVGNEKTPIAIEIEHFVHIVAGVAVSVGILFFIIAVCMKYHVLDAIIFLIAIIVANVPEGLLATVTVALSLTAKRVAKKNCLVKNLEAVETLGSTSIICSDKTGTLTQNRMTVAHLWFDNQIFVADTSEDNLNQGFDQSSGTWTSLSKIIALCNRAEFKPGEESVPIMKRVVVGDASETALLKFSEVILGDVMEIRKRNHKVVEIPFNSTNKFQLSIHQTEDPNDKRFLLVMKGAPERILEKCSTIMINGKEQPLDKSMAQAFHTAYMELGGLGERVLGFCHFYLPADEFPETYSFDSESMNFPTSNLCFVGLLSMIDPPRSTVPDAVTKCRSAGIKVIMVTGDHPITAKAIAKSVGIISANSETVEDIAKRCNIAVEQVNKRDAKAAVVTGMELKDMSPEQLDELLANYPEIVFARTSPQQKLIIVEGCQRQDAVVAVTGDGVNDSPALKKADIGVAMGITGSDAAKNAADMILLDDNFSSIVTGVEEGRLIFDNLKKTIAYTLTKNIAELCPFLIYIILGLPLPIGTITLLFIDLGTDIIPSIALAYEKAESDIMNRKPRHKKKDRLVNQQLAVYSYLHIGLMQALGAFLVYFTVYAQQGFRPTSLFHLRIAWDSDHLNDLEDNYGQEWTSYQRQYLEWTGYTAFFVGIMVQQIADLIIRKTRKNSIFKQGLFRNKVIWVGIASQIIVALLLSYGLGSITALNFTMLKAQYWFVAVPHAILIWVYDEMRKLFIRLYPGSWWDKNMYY

For the compound `COc1ccc2[nH]c([S+]([O-])Cc3ncc(C)c(OC)c3C)nc2c1` (stereo not drawn) [omeprazole], the remaining activity at 1 µM (Initial concentration of omeprazole in the break-down mixture 1.0 µM, omeprazole decomposed at pH 5.0, 120 minutes, 37°C, membranes incubated 10 minutes at 37°C, read-out: Remaining enzyme activity % Mean value ± S.D.) stood at 100 ± 5.9%. Further, the remaining activity at 2.5 µM (Initial concentration of omeprazole in the break-down mixture 2.5 µM, omeprazole decomposed at pH 5.0, 120 minutes, 37°C, membranes incubated 10 minutes at 37°C, read-out: Remaining enzyme activity % Mean value ± S.D.) is 72.4 ± 6%. Also, the remaining activity at 5 µM (Initial concentration of omeprazole in the break-down mixture 5.0 µM, omeprazole decomposed at pH 5.0, 120 minutes, 37°C, membranes incubated 10 minutes at 37°C, read-out: Remaining enzyme activity % Mean value ± S.D.) was 31.9 ± 6.7%. In addition, the remaining activity at 7.5 µM (Initial concentration of omeprazole in the break-down mixture 7.5 µM, omeprazole decomposed at pH 5.0, 120 minutes, 37°C, membranes incubated 10 minutes at 37°C, read-out: Remaining enzyme activity % Mean value ± S.D.) is 18.6 ± 5.5%. Also, the remaining activity at 10 µM (Initial concentration of omeprazole in the break-down mixture 10.0 µM, omeprazole decomposed at pH 5.0, 120 minutes, 37°C, membranes incubated 10 minutes at 37°C, read-out: Remaining enzyme activity % Mean value ± S.D.) turned out to be 5.2 ± 3.2%. For the same compound, where the note is “mixture (acid decomposed omeprazole)”, the “activity of the colonic K^+-ATPase enzyme” value was “almost completely inhibits”.

For the origin of these results see patent EP0197013A1, “Substituted benzimidazoles for the manufacture of a medicament for treatment of intestinal inflammatory diseases” (Aktiebolaget Hässle, priority 1985, dated 1986).
